Where no end group is shown, it is not given here.
Legend:
[1] = system: PI3K pathway; experiment: NSC survival after PI3K inhibitor LY294002 pre-treatment; format: cell-based, rat; conditions: 10 μM LY294002 pre-treatment, then 20 μM Aβ25-35 and 10 μM PEP1 for 48 hours
Procedure: To identify the role of the PI3K/AKT signaling system in the PEP1 mechanism, NSCs were treated with a PI3K inhibitor LY294002 for 1 hour before treatment of 50 μM PEP1 and 20 μM Aβ25-30. NSCs were divided into four groups as follows: control group (Group 1), group treated with 20 μM Aβ25-35 for 48 hours (Group 2), group treated with 20 μM Aβ25-35, as well as 50 μM PEP1, for 48 hours (Group 3), and group treated with 10 μM LY294002 and 20 μM Aβ25-35, as well as 50 μM PEP1, for 48 hours (Group 4). To investigate a PEP1 effect on nerve protection via a PI3K pathway induced by Aβ25-35 toxicity, NSCs were divided into four groups: control group (Group 1), group treated with 20 μM Aβ25-35 for 48 hours (Group 2), group treated with 20 μM Aβ25-35 and 10 μM PEP1 for 48 hours (Group 3), and group treated with 10 μM LY294002 for […], and then treated with 20 μM Aβ25-35 10 μM PEP1 for 48 hours (Group 4).

[2] = system: NSCs; experiment: Cell viability of NSCs (CCK-8, MTT, LDH); format: cell-based, rat; conditions: NSCs, Aβ25-35 alone 0, 2.5, 5, 10, 20, 40 μM, 48 hours; CCK-8, MTT, LDH
Procedure: NSCs were isolated from the brain of a rat embryo, cultured and developed. The NSC culture was performed in the same manner as to be described below. Briefly describing, a rat embryo was obtained on day 13 of the embryonic period, and the brain was quickly removed and placed in a petri dish containing cold phosphate-buffered physiological saline (Hank's balanced salt solution; HBSS).
Single cells were isolated from the cerebral cortex, the lateral ganglion eminence, and the embryonic midbrain. These cells were put into a dish pre-treated with L-ornithine and fibronectin, containing calcium and magnesium-free phosphate-buffered physiological saline (PBS) at a density of 20,000 cells/cm^2. In addition, the cells were cultured in an N2 medium (DMEM F/12, […] insulin, 100 mg/L transferrin, 30 nM selenite, […], 20 nM progesterone, 0.2 mM ascorbic acid, […], 8.6 mM D(+) glucose, and […]). The culture was maintained in humidified and 5% CO2 conditions for 4 to 6 days at 37° C.
NSCs were divided into 6 samples, and each sample was treated with […] Aβ25-30 oligomers for 48 hours to identify a suitable concentration. […] Briefly, Aβ25-30 was dissolved in hexafluoroisopropanol to reach a concentration of 1 mM. In addition, the prepared solution was dispensed using a sterilized ultramicrocentrifuge tube. […]
To identify the PEP1 effect in NSCs, PEP1 was treated at various concentrations of 0, 1, 10, 50, 100, and 200 μM for 48 hours. […] The plate was gently washed with PBS several times, and cell viability was measured using a cell counting kit-8 (CCK-8), MTT and lactate dehydrogenase (LDH).
CCK-8 was used as a method for counting living cells by bonding 2-[2-methoxy-4-nitrophenyl]-3-[4-nitrophenyl]-5-[2,4-disulfophenyl]-2H-tetrazolium, monosodium salt (WST-8) with 1-methoxyphenazinium methylsulfate (PMS). […] Cell viability was evaluated by measuring absorbance at 450 nm. […] Cell viability was evaluated by measuring absorbance at 490 nm and reference absorbance at 690 nm. […]

[3] = Cell-free ROS production (DHBA level by HPLC); conditions: 20 μM Aβ25-35 and PEP1 0, 1, 10, 50 μM
Procedure: To investigate how Aβ25-30 and PEP1 influenced ROS, a DHBA level was measured and observed by a cell-free method. This method was carried out by observing the DHBA level in a tube containing 20 μM Aβ25-30 and each concentration of PEP1 (0, 1, 10 or 50 μM) through HPLC.

[4] = system: NSCs; experiment: NSC proliferation (BrdU and CFU assays); format: cell-based, rat; conditions: NSCs, Aβ25-35 alone 0-40 μM, 48 hours; BrdU and CFU
Procedure: NSCs were treated with different concentrations of PEP1 and 20 μM Aβ25-30 for 48 hours. Afterward, NSCs were cultured in bromodeoxyuridine (BrdU)-labeled media for 5 hours and observed using a kit. Cell division was evaluated by measuring absorbance at 370 nm and reference absorbance at 492 nm. All results were normalized based on a cell-free well.
A CFU assay was carried out by the following method. Briefly, 0.25×10^5 NSCs were plated in a 6-well plate, and treated with 20 μM Aβ25-30 and then with PEP1 at 1, 10 or 50 μM for 48 hours. The cells were washed with DPBS, and then the medium was exchanged with a fresh cell culture medium. Fourteen days later, the cells were washed again with DPBS, and stained with 0.5% crystal violet dissolved in methanol for 30 minutes at room temperature. Following staining, the plate was washed with DPBS and then dried. The number of colonies was observed using a stereoscopic microscope, and among these colonies, those smaller than 2 mm or faintly stained were removed.

Compound | survival ability of NSCs degraded, Group 4 compared to Group 3 [1] | cell survival ability [2] | ROS production under a cell-free condition [3] | proliferation [4]
O=c1cc(N2CCOCC2)oc2c(-c3ccccc3)cccc12 [LY294002] | approximately 16% |  |  | 
Aβ25-35: β-Amyloid 25-35 oligomers used to induce neurotoxicity in NSCs (GSNKGAIIGLM; also: used as oligomers; UniProt P05067 696-706, looked up, fragment) [reference compound] |  | significantly reduced in a concentration-dependent method | did not exhibit a significant influence | significantly reduced in a concentration-dependent method

From patent US20180318383A1, “PEPTIDE HAVING NEURONAL LOSS PREVENTION AND REGENERATION EFFECTS, AND COMPOSITION CONTAINING SAME” (GEMVAX & KAEL CO., LTD., priority 2015, published 2018)
